Experimental data from patent US9708308B2, “Factor IXa inhibitors” (Merck Sharp & Dohme Corp., priority 2012, dated 2017).

The compounds below were run against Factor IXa (Homo sapiens, UniProt P00740) (assay: Determination of inhibitory activity against Factor IXa (cleavage of fluorescent peptide substrate)). Details: cleavage of fluorescent peptide CH3SO2-D-CHG-Gly-Arg-AFC, release of AFC; read-out: FIXa IC50.
Factor IXa, sequence (P00740 227-461 limits assumed): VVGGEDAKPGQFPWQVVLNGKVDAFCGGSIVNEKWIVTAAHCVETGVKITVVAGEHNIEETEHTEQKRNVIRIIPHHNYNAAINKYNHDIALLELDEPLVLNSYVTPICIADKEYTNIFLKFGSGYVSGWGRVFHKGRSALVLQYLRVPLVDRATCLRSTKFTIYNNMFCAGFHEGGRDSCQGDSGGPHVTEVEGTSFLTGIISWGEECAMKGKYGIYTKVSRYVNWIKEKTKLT
Factor IXa, sequence (P00740 47-191 partner limits assumed): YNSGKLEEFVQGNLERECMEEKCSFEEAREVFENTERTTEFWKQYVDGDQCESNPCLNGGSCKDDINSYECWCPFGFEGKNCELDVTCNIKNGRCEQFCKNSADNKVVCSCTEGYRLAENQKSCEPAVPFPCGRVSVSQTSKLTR
Assay type: biochemical
From the text: • (R)—N-(3-aminobenzo[d]isoxazol-6-yl)-2-hydroxy-2-((R)-4-(1-(6-methoxypyridazin-4-yl)-1H-pyrazol-3-yl)-6,6-dimethyl-3-oxomorpholin-2-yl)acetamide. Determination of Inhibitory Activity Against Factor IXa
Formation of a clot to stem bleeding at a site of blood vessel injury involves the coordinated activity of a group of plasma proteins that initiate and propagate fibrin formation and subsequently protect fibrin from premature degradation. Factor IX is a key component of the plasma system that forms a fibrin clot at a site of vascular injury. The activity of Factor IXa is measured by monitoring the cleavage of the fluorescent peptide, CH3SO2-D-CHG-Gly-Arg-AFC.AcOH (“CHG” is cyclohexyl-glycine and “AFC” is trifluoro aminomethyl coumarin). Factor IXa cleaves the amide bond between Arg and AFC, thereby releasing the AFC fluorophore. The free AFC can be detected with a fluorescence detector at an excitation wavelength of 405 nm and emission wavelength of 510 nm.
`C[C@](O)(C(=O)Nc1ccc2c(N)noc2c1)[C@H]1OCCN(c2ccn(-c3ccnnc3)n2)C1=O` [Example 37, (R)—N-(3-aminobenzo[d]isoxazol-6-yl)-2-hydroxy-2-((R)-3-oxo-4-(1-(pyridazin-4-yl)-1H-pyrazol-3-yl)morpholin-2-yl)propanamide] showed an IC50 of 0.00436 µM. In the case of `C[C@](O)(C(=O)Nc1ccc2c(N)noc2c1)[C@H]1OCCN(c2ccn(-c3cnnc(N4CCC4)c3)n2)C1=O` [Example 38, (R)—N-(3-aminobenzo[d]isoxazol-6-yl)-2-((R)-4-(1-(6-(azetidin-1-yl)pyridazin-4-yl)-1H-pyrazol-3-yl)-3-oxomorpholin-2-yl)-2-hydroxypropanamide], the IC50 is reported as 0.0232 µM. `COc1cc(-n2ccc(N3CCO[C@H]([C@@](C)(O)C(=O)Nc4ccc5c(N)noc5c4)C3=O)n2)cnn1` [Example 39, (R)—N-(3-aminobenzo[d]isoxazol-6-yl)-2-hydroxy-2-((R)-4-(1-(6-methoxypyridazin-4-yl)-1H-pyrazol-3-yl)-3-oxomorpholin-2-yl)propanamide] showed an IC50 of 0.16 µM. In the case of `[2H]C([2H])([2H])Oc1cc(-n2ccc(N3CCO[C@H]([C@@](C)(O)C(=O)Nc4ccc5c(N)noc5c4)C3=O)n2)cnn1` [Example 40, (2R)—N-(3-amino-1,2-benzoxazol-6-yl)-2-hydroxy-2-[(2R)-3-oxo-4-[1-[6-(trideuteriomethoxy)pyridazin-4-yl]pyrazol-3-yl]morpholin-2-yl]propanamide], the IC50 is reported as 0.0037 µM. Work on `CC(C)Oc1cc(-n2ccc(N3CCO[C@H]([C@@](C)(O)C(=O)Nc4ccc5c(N)noc5c4)C3=O)n2)cnn1` [Example 41, (R)—N-(3-aminobenzo[d]isoxazol-6-yl)-2-hydroxy-2-((R)-4-(1-(6-isopropoxypyridazin-4-yl)-1H-pyrazol-3-yl)-3-oxomorpholin-2-yl)propanamide] yielded an IC50 of 0.0578 µM. `C[C@](O)(C(=O)Nc1ccc2c(N)noc2c1)[C@H]1OCCN(c2ccn(-c3cnnc(OC4CCC4)c3)n2)C1=O` [Example 43, (R)—N-(3-aminobenzo[d]isoxazol-6-yl)-2-((R)-4-(1-(6-cyclobutoxypyridazin-4-yl)-1H-pyrazol-3-yl)-3-oxomorpholin-2-yl)-2-hydroxypropanamide] showed an IC50 of 0.535 µM. Compound `Cn1ncc(-n2ccc(N3CCO[C@H]([C@@](C)(O)C(=O)Nc4ccc5c(N)noc5c4)C3=O)n2)cc1=O` [Example 44, (R)—N-(3-aminobenzo[d]isoxazol-6-yl)-2-hydroxy-2-((R)-4-(1-(1-methyl-6-oxo-1,6-dihydropyridazin-4-yl)-1H-pyrazol-3-yl)-3-oxomorpholin-2-yl)propanamide] has an IC50 of 0.812 µM. `C[C@](O)(C(=O)Nc1ccc2c(N)noc2c1)[C@H]1OCCN(c2ccn(-c3cnnc(C#N)c3)n2)C1=O` [Example 45, (R)—N-(3-aminobenzo[d]isoxazol-6-yl)-2-((R)-4-(1-(6-cyanopyridazin-4-yl)-1H-pyrazol-3-yl)-3-oxomorpholin-2-yl)-2-hydroxypropanamide] was tested, and the IC50 was 0.00261 µM. Compound `C[C@](O)(C(=O)Nc1ccc2c(N)noc2c1)[C@H]1OCCN(c2ccn(-c3cnnc(C(F)(F)F)c3)n2)C1=O` [Example 46, (R)—N-(3-aminobenzo[d]isoxazol-6-yl)-2-hydroxy-2-((R)-3-oxo-4-(1-(6-(trifluoromethyl)pyridazin-4-yl)-1H-pyrazol-3-yl)morpholin-2-yl)propanamide] has an IC50 of 0.00141 µM. For `C[C@](O)(C(=O)Nc1ccc2c(N)noc2c1)[C@H]1OCCN(c2nn(-c3ccnnc3)cc2F)C1=O` [Example 47, (R)—N-(3-aminobenzo[d]isoxazol-6-yl)-2-((R)-4-(4-fluoro-1-(pyridazin-4-yl)-1H-pyrazol-3-yl)-3-oxomorpholin-2-yl)-2-hydroxypropanamide], the IC50 was 0.00691 µM. `C[C@](O)(C(=O)Nc1ccc2c(N)noc2c1)[C@H]1OCCN(c2nn(-c3cnnc(C#N)c3)cc2F)C1=O` [Example 48, (R)—N-(3-aminobenzo[d]isoxazol-6-yl)-2-((R)-4-(1-(6-cyanopyridazin-4-yl)-4-fluoro-1H-pyrazol-3-yl)-3-oxomorpholin-2-yl)-2-hydroxypropanamide] was tested, and the IC50 was 0.00415 µM. In the case of `COc1cc(-n2cc(F)c(N3CCO[C@H]([C@@](C)(O)C(=O)Nc4ccc5c(N)noc5c4)C3=O)n2)cnn1` [Example 49, (R)—N-(3-aminobenzo[d]isoxazol-6-yl)-2-((R)-4-(4-fluoro-1-(6-methoxypyridazin-4-yl)-1H-pyrazol-3-yl)-3-oxomorpholin-2-yl)-2-hydroxypropanamide], the IC50 is reported as 0.00648 µM. In the case of `C[C@](O)(C(=O)Nc1ccc2c(N)noc2c1)[C@H]1OCCN(c2nn(-c3cnnc(C(F)(F)F)c3)cc2F)C1=O` [Example 50, (R)—N-(3-aminobenzo[d]isoxazol-6-yl)-2-((R)-4-(4-fluoro-1-(6-(trifluoromethyl)pyridazin-4-yl)-1H-pyrazol-3-yl)-3-oxomorpholin-2-yl)-2-Hydroxypropanamide], the IC50 is reported as 0.00189 µM. `Cc1nccc(-n2ccc(N3CCO[C@H]([C@@](C)(O)C(=O)Nc4ccc5c(N)noc5c4)C3=O)n2)n1` [Example 51, (R)—N-(3-aminobenzo[d]isoxazol-6-yl)-2-hydroxy-2-((R)-4-(1-(2-methylpyrimidin-4-yl)-1H-pyrazol-3-yl)-3-oxomorpholin-2-yl)propanamide] gave an IC50 of 0.17 µM. In the case of `CN(C)c1nccc(-n2ccc(N3CCO[C@H]([C@@](C)(O)C(=O)Nc4ccc5c(N)noc5c4)C3=O)n2)n1` [Example 52, (R)—N-(3-aminobenzo[d]isoxazol-6-yl)-2-((R)-4-(1-(2-(dimethylamino)pyrimidin-4-yl)-1H-pyrazol-3-yl)-3-oxomorpholin-2-yl)-2-Hydroxypropanamide], the IC50 is reported as 0.102 µM. In the case of `C[C@](O)(C(=O)Nc1ccc2c(N)noc2c1)[C@H]1OCCN(c2ccn(-c3ccnc(C(F)(F)F)n3)n2)C1=O` [Example 53, (R)—N-(3-aminobenzo[d]isoxazol-6-yl)-2-hydroxy-2-((R)-3-oxo-4-(1-(2-(trifluoromethyl)pyrimidin-4-yl)-1H-pyrazol-3-yl)morpholin-2-yl)propanamide], the IC50 is reported as 0.0767 µM. `C[C@](O)(C(=O)Nc1ccc2c(N)noc2c1)[C@H]1OCCN(c2ccn(-c3ccnc(C#N)n3)n2)C1=O` [Example 54, (R)—N-(3-aminobenzo[d]isoxazol-6-yl)-2-((R)-4-(1-(2-cyanopyrimidin-4-yl)-1H-pyrazol-3-yl)-3-oxomorpholin-2-yl)-2-hydroxypropanamide] gave an IC50 of 0.145 µM. Compound `COc1nccc(-n2ccc(N3CCO[C@H]([C@@](C)(O)C(=O)Nc4ccc5c(N)noc5c4)C3=O)n2)n1` [Example 55, (R)—N-(3-aminobenzo[d]isoxazol-6-yl)-2-hydroxy-2-((R)-4-(1-(2-methoxypyrimidin-4-yl)-1H-pyrazol-3-yl)-3-oxomorpholin-2-yl)propanamide] has an IC50 of 0.0248 µM. With `COc1cc(-n2ccc(N3CCO[C@H]([C@@](C)(O)C(=O)Nc4ccc5c(N)noc5c4)C3=O)n2)ncn1` [Example 56, (R)—N-(3-aminobenzo[d]isoxazol-6-yl)-2-hydroxy-2-((R)-4-(1-(6-methoxypyrimidin-4-yl)-1H-pyrazol-3-yl)-3-oxomorpholin-2-yl)propanamide] the IC50 was 0.0845 µM. With `C[C@](O)(C(=O)Nc1ccc2c(N)noc2c1)[C@H]1OCCN(c2nn(-c3ccnc(C(F)(F)F)n3)cc2F)C1=O` [Example 57, (R)—N-(3-aminobenzo[d]isoxazol-6-yl)-2-((R)-4-(4-fluoro-1-(2-(trifluoromethyl)pyrimidin-4-yl)-1H-pyrazol-3-yl)-3-oxomorpholin-2-yl)-2-hydroxypropanamide] the IC50 was 0.0637 µM.
